Test results: US9132136B2, “Pharmaceutical combination” (HOFFMANN-LA ROCHE INC., priority 2010, dated 2015)
“Also recorded” adds a separate entry of the source. Counter-ions that a name gives are not always drawn. Like-named read-outs stand apart in the source and are kept apart here. Blank lines part the entries; values can stand above or below the compound they belong to.

Columns and labels:
mouse TAAR1 = biological target: T1, mouse TAAR1 (Mus musculus, UniProt Q923Y8); experiment: In vitro functional activity (cAMP assay) at mouse TAAR1 receptor in recombinant HEK293 cells; type: cell-based; conditions: for Emax: HEK293, relative to phenylethylamine having 100% agonistic activity, read-out: % efficacy
T1 construct: expressed in transfected cells
T1 sequence (Q923Y8 whole entry): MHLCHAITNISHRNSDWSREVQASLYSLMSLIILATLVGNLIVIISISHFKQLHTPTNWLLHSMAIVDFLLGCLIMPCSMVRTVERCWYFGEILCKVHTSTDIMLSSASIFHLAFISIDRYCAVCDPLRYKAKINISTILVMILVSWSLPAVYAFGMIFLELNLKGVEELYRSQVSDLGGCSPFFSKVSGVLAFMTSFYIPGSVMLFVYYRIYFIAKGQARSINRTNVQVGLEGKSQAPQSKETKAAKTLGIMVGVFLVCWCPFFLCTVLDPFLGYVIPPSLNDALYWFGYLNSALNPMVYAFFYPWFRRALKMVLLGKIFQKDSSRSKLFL
Method: In Vitro Functional Activity of TAAR1 Agonists at Mouse TAAR1 Receptor
Recombinant HEK293 cells expressing the mouse TAAR1 were grown at 37° C. and 5% CO2/95% air in 250 ml Falcon culture flasks in 30 ml culture medium. The cell culture medium contained DMEM high glucose, fetal calf serum (10%, heat inactivated for 30 min at 56° C.), geneticin G418 (500 μg/ml), and penicillin/streptomycin (1%). Cells were harvested when 80-90% confluent. Then culture medium was then removed from the culture flasks, cells washed once with 5 ml of PBS. After removing the wash solution, 5 ml of trypsin/EDTA solution were added for 5 min at 37° C. Afterwards, 45 ml of culture medium was added to the 5 ml detached cell solution and the total 50 ml transferred into a 50 ml Falcon tube (ref: 2070), the tube was centrifuged at 1300 rpm for 3 min at RT and the culture medium removed. The cell pellet was resuspended in fresh culture medium and brought to 5×10 E5 cells per milliliter. Then the cells were plated in 96-well Plate (BIOCOAT 6640 from Becton Dickinson) with a multipipette (100 μl/well, 50 000 cells/well) and incubated 20 h at 37° C.
The cell culture medium was removed and the cells washed once with PBS. 50 μl of PBS (AMIMED Endotoxine free: 8-05F00-1) with 1 mM IBMX were added and the cells allowed to incubate for 30 min at 37° C. and 5% CO2/95% air. Then 50 μl of a (e.g.) 20 μM compound solution or 50 μl of a 50% beta-PEA stimulation concentration in PBS (AMIMED Endotoxine free) with 1 mM IBMX were added and the cells incubated for 30 min at 37° C. as above again. After the incubation the cells were lysed with 50 μl of the 3× Detection Mix solution containing Ru-cAMP, Alexa700-cAMP Ab and lysis buffer for at least 60 min (better 2 h) at RT under strong shaking. The fluorescence is measured on the NanoScan (10M reader) (Ex. 456 nm, Em. 630 & 700 nm).
Efficacy values (% eff.) are relative to phenylethylamine having 100% agonistic activity.

[1] = Oral glucose tolerance test (oGTT) in male C57Bl6 mice; type: in vivo, male C57BL/6J mice
Method: An oral glucose tolerance test (oGTT) was performed in C57Bl6 mice to address potential anti-diabetic effects of TAAR1 agonists. Male C57BL/6J mice (Charles River Laboratories, Lyon, France) were stratified into groups of 8 mice according to body weight. The evening before the animals received 1 g food, this corresponds to a fasting period of about 10 hours. At the experiment day the animals were treated with TAAR1 agonists or placebo (0.3% Tween 80) 45 minutes prior to an oral glucose challenge of 2 g/kg. The main readout was blood glucose measured with Accu-Chek Aviva. In parallel blood samples were taken for insulin determination.

[2] = paediatric patients, cited from earlier work
[3] = 14-day treatment in rats: body weight gain, fat mass (MR relaxometry), food intake
Description: Along with body weight measurement, magnetic resonance (MR) relaxometry was employed to determine, in a noninvasive manner, fat mass composition in the animals.

[4] = tested on: cocaine-induced hyperlocomotor activity in mice; experiment: Cocaine-induced locomotion test in mice; type: in vivo
[5] = tested on: L-687414-induced hyperlocomotion in mice; experiment: L-687414-induced locomotion test in mice; type: in vivo
[6] = HEK293 cells expressing mouse TAAR1, cAMP assay, read-out: EC50
[7] = 0.3 and 1 mg/kg p.o., vs vehicle
[8] = 14 days, olanzapine 2 mg/kg p.o.
[9] = 10 and 30 mg/kg p.o., vs vehicle
[10] = 0.1 and 0.3 mg/kg p.o., vs vehicle
[11] = 14 days, 1 mg/kg p.o., vs vehicle
[12] = 14 days, 3 and 10 mg/kg p.o., vs vehicle

Structure (SMILES): NC1=N[C@@H](c2ccc(Cl)cc2C(F)(F)F)CO1 [Example S3, (+)-(S)-4-(4-Chloro-2-trifluoromethyl-phenyl)-4,5-dihydro-oxazol-2-ylamine]
EC50 (mouse TAAR1): 1.3 nM
Emax (mouse TAAR1): 67%
glucose AUC (0-60 min) during oGTT ([1]; 1 and 3 mg/kg p.o., vs vehicle): markedly lowered
insulin AUC (0-60 min) during oGTT ([1]; 1 and 3 mg/kg p.o., vs vehicle): markedly lowered

Structure (SMILES): Cc1cc(C(=O)Nc2ccc([C@@H]3CNCCO3)cc2)cc(Cl)n1 [Example S12, (R)-2-Chloro-6-methyl-N-(4-(morpholin-2-yl)phenyl)isonicotinamide hydrochloride]
Emax (mouse TAAR1): 69%
EC50 (mouse TAAR1; [6]): 3.1 nM
glucose AUC (0-60 min) during oGTT ([1]; 3 mg/kg p.o., vs vehicle): markedly lowered

Structure (SMILES): OCCOCCN1CCN(C2=Nc3ccccc3Sc3ccccc32)CC1 [quetiapine]
incidence rates of hyperglycaemia and the metabolic syndrome [2]: modestly higher incidence rates
adverse metabolic baseline-to-endpoint changes (total cholesterol, triglycerides, non-HDL cholesterol, ratio of triglycerides to HDL cholesterol) ([2]; study period): reached statistical significance

Structure (SMILES): O=C(NCc1ccc(F)cc1)Nc1ccc([C@H]2CNCCO2)cc1 [Example S15, (S)-1-(4-Fluorobenzyl)-3-(4-(morpholin-2-yl)phenyl)urea hydrochloride]
Emax (mouse TAAR1): 40%
EC50 (mouse TAAR1; [6]): 0.6 nM
glucose AUC (0-60 min) during oGTT ([1]; 1 mg/kg p.o., vs vehicle): markedly lowered

Structure (SMILES): O=C1CCc2ccc(OCCCCN3CCN(c4cccc(Cl)c4Cl)CC3)cc2N1 [aripiprazole]
adverse metabolic baseline-to-endpoint changes (total cholesterol, triglycerides, non-HDL cholesterol, ratio of triglycerides to HDL cholesterol) ([2]; study period): not significant

Structure (SMILES): Cc1cc2c(s1)Nc1ccccc1N=C2N1CCN(C)CC1 [olanzapine, reference compound]
incidence rates of hyperglycaemia and the metabolic syndrome [2]: highest incidence rates
food intake [3, 8]: increase
weight gain [3, 8]: increase
Cumulative food intake ± SEM ([3]; Study 2, olanzapine 2 mg/kg): 301.6 ± 8.6 g

Structure (SMILES): O=C(Nc1ccc(C2CCNC2)cc1)Nc1ccc(Cl)cn1 (racemic) [Example S7, (RS)-1-(5-Chloro-pyridin-2-yl)-3-(4-pyrrolidin-3-yl-phenyl)-urea hydrochloride]
Emax (mouse TAAR1): 57%
EC50 (mouse TAAR1; [6]): 0.8 nM
glucose AUC (0-60 min) during oGTT ([1]; 10 mg/kg p.o., vs vehicle): markedly lowered

Structure (SMILES): O=C(Nc1ccc(C2CCNC2)cc1)c1ccc(Cl)cn1 (racemic) [Example S8, (RS)-5-Chloro-pyridine-2-carboxylic acid (4-pyrrolidin-3-yl-phenyl)-amide hydrochloride]
Emax (mouse TAAR1): 65%
EC50 (mouse TAAR1; [6]): 7.4 nM
glucose AUC (0-60 min) during oGTT [1, 9]: markedly lowered

Structure (SMILES): O=C(Nc1ccc(C2CCNC2)cc1)c1ccc(Cl)cc1 (racemic) [Example S6, (RS)-4-Chloro-N-(4-pyrrolidin-3-yl-phenyl)-benzamide hydrochloride]
Emax (mouse TAAR1): 78%
EC50 (mouse TAAR1; [6]): 1.4 nM
glucose AUC (0-60 min) during oGTT [1, 9]: markedly lowered

Structure (SMILES): O=C(Nc1ccc([C@H]2CNCCO2)cc1)c1ccc(OCC(F)(F)F)nc1 [Example S13, (S)—N-(4-(Morpholin-2-yl)phenyl)-6-(2,2,2-trifluoroethoxy)nicotinamide hydrochloride]
Emax (mouse TAAR1): 54%
EC50 (mouse TAAR1; [6]): 1.6 nM
glucose AUC (0-60 min) during oGTT ([1]; 3 mg/kg p.o., vs vehicle): markedly lowered

Structure (SMILES): CC[C@@H](C[C@H]1COC(N)=N1)c1ccccc1 [Example S1, (S)-4-((S)-2-Phenyl-butyl)-4,5-dihydro-oxazol-2-ylamine]
Emax (mouse TAAR1): 90%
EC50 (mouse TAAR1; [6]): 2 nM
fasting glucose levels [1]: No effect
glucose AUC (0-60 min) during oGTT (blood glucose excursion) [1, 10]: significantly lowered; also recorded: markedly lowered
insulin AUC (0-60 min) during oGTT (insulin excursion) [1, 10]: significantly lower; also recorded: markedly lowered
cocaine-induced hyperlocomotor activity ([4]; tested alone, 0.1 mg/kg p.o.): partially antagonized

Structure (SMILES): Cc1c(F)cccc1[C@H]1COC(N)=N1 [Example S2, (S)-4-(3-fluoro-2-methyl-phenyl)-4,5-dihydro-oxazol-2-ylamine]
Emax (mouse TAAR1): 65%
EC50 (mouse TAAR1; [6]): 1.8 nM
glucose AUC (0-60 min) during oGTT [1, 7]: markedly lowered
insulin AUC (0-60 min) during oGTT [1, 7]: markedly lowered
fat mass [3, 11]: No significant effect
food intake [3, 11]: No significant effect
weight gain ([3]; 14 days, 1 mg/kg p.o., vs vehicle, 1 mg/kg): No significant effect and not
food intake ([3]; 14 days, 10 mg/kg): significant reduction
weight loss compared to pre-treatment values ([3]; 14 days, 3 and 10 mg/kg p.o.): without inducing weight loss
fat mass [3, 12]: reduced
food intake [3, 12]: reduced
weight gain [3, 12]: reduced
Cumulative food intake ± SEM ([3]; Study 1, 3 mg/kg): 233.8 ± 7.4 g
Cumulative food intake ± SEM ([3]; Study 1, 10 mg/kg): 217.0 ± 7.3 g
Cumulative food intake ± SEM ([3]; Study 2, 1 mg/kg): 248.8 ± 5.0 g
L-687414-induced hyperlocomotion ([5]; acute, 0.00003-1 mg/kg p.o.): dose-dependently antagonized; also recorded: fully antagonized
L-687414-induced locomotor activity ([5]; alone, 0.001 mg/kg p.o.): partially active
cocaine-induced hyperlocomotor activity ([4]; 1 and 3 mg/kg p.o.): significantly antagonized
effects on baseline locomotor activity ([4]; doses that antagonized cocaine (1 and 3 mg/kg p.o.)): modest effects
cocaine-induced hyperlocomotor activity ([4]; tested alone, 0.3 mg/kg p.o., 0.3 mg/kg): partially active; also recorded: partially antagonized

Structure (SMILES): Cc1nc2n(c(=O)c1CCN1CCC(c3noc4cc(F)ccc34)CC1)CCCC2 [risperidone]
levels of triglycerides ([2]; study period): increased significantly

Now from value to compound, other results behind:

Emax (mouse TAAR1): 55%
EC50 (mouse TAAR1; [6]): 4.6 nM
Structure (SMILES): O=C(Nc1ccc([C@H]2CNCCO2)cc1)c1ccnc(C(F)(F)F)c1 [Example S14, (S)—N-(4-(Morpholin-2-yl)phenyl)-2-(trifluoromethyl)isonicotinamide hydrochloride]
glucose AUC (0-60 min) during oGTT ([1]; 1 mg/kg p.o., vs vehicle): markedly lowered

Emax (mouse TAAR1): 60%
EC50 (mouse TAAR1; [6]): 0.4 nM
Structure (SMILES): N#Cc1cccc(NC(=O)Nc2ccc([C@H]3CNCCO3)cc2)c1 [Example S16, (S)-1-(3-Cyanophenyl)-3-(4-(morpholin-2-yl)phenyl)urea hydrochloride]
glucose AUC (0-60 min) during oGTT ([1]; 1 mg/kg p.o., vs vehicle): markedly lowered

Emax (mouse TAAR1): 45%
EC50 (mouse TAAR1; [6]): 0.1 nM
Structure (SMILES): NC1=N[C@@H](CCc2ccc(NC(=O)c3ccc(Cl)cc3)cc2)CO1 [Example S11, N-{4-[2-((S)-2-Amino-4,5-dihydro-oxazol-4-yl)-ethyl]-phenyl}-4-chloro-benzamide]
glucose AUC (0-60 min) during oGTT ([1]; 1 and 3 mg/kg p.o., vs vehicle): markedly lowered

Emax (mouse TAAR1): 32%
EC50 (mouse TAAR1; [6]): 1.6 nM
Structure (SMILES): NC1=N[C@@H](CCc2ccc(NC(=O)c3ncc(Cl)cn3)cc2)CO1 [Example S10, 5-Chloro-pyrimidine-2-carboxylic acid {4-[2-((S)-2-amino-4,5-dihydro-oxazol-4-yl)-ethyl]-phenyl}-amide]
glucose AUC (0-60 min) during oGTT ([1]; 10 mg/kg p.o., vs vehicle): markedly lowered

Emax (mouse TAAR1): 65%
EC50 (mouse TAAR1; [6]): 3.3 nM
Structure (SMILES): CCN(C[C@H]1COC(N)=N1)c1ccccc1 [Example S4, (S)-4-[(Ethyl-phenyl-amino)-methyl]-4,5-dihydro-oxazol-2-ylamine]
glucose AUC (0-60 min) during oGTT ([1]; 0.3 mg/kg p.o., vs vehicle): markedly lowered
insulin AUC (0-60 min) during oGTT ([1]; 0.3 mg/kg p.o., vs vehicle): markedly lowered

Emax (mouse TAAR1): 39%
EC50 (mouse TAAR1; [6]): 1.8 nM
Structure (SMILES): O=C(Nc1ccc([C@H]2CNCCO2)cc1)c1ccc(Cl)nc1 [Example S17, (S)-6-Chloro-N-(4-(morpholin-2-yl)phenyl)nicotinamide hydrochloride]
glucose AUC (0-60 min) during oGTT [1, 7]: markedly lowered

Emax (mouse TAAR1): 51%
EC50 (mouse TAAR1; [6]): 1.6 nM
Structure (SMILES): CC[C@@H](C[C@H]1COC(N)=N1)Oc1cccc(O)c1 [Example S5, 3-[(S)-1-((S)-2-Amino-4,5-dihydro-oxazol-4-ylmethyl)-propoxy]-phenol]
glucose AUC (0-60 min) during oGTT ([1]; 30 mg/kg p.o., vs vehicle): markedly lowered

Emax (mouse TAAR1): 99%
EC50 (mouse TAAR1; [6]): 1.7 nM
Structure (SMILES): C[C@H](OC[C@H]1COC(N)=N1)c1ccc(F)cc1 [Example S9, (S)-4-[(S)-1-(4-Fluoro-phenyl)-ethoxymethyl]-4,5-dihydro-oxazol-2-ylamine]
glucose AUC (0-60 min) during oGTT ([1]; 10 mg/kg p.o., vs vehicle): markedly lowered
